Experimental data reported in US11098058B2, “Bicyclic ketone compounds and methods of use thereof” (Genentech, Inc., priority 2017, dated 2021).

Target: human RIP1 kinase domain (2-375) (Homo sapiens (Human), UniProt Q13546)
Conditions: RIP1 kinase inhibition, tight-binding apparent Ki; 50 nM enzyme, 50 μM ATP, 2 hours incubation
Procedure: RIP1 Kinase Inhibition Assays (Biochemical Assay)
The ability of the receptor interacting protein kinase (RIPK1) to catalyze the hydrolysis of adenosine-5′-triphosphate (ATP) is monitored using the Transcreener ADP (adenosine-5′-diphosphate) assay (BellBrook Labs). Purified human RIP1 kinase domain (2-375) (50 nM) derived from a baculovirus-infected insect cell expression system is incubated with test compounds for 2 hours in 50 mM Hepes buffer (pH 7.5) containing 30 mM MgCl2, 1 mM dithiothreitol, 50 μM ATP, 0.002% Brij-35, and 0.5% dimethyl sulfoxide (DMSO). […] The tracer bound to the antibody is displaced by the ADP generated during the RIP1K reaction, which causes a decrease in fluorescence polarization that is measured by laser excitation at 633 nm with a FP microplate reader M1000. Fractional activity was plotted against test article concentration. Using Genedata Screener software (Genedata; Basel, Switzerland), the data were fit to the tight-binding apparent inhibition constant (Ki^app) Morrison equation [Williams, J. W. and Morrison, J. F. (1979) The kinetics of reversible tight-binding inhibition. […] The following equation was used to calculate fractional activity and Ki^app:
[formula] where [E]T and [I]T are the total concentrations of active enzyme and test article, respectively.

Sequence of human RIP1 kinase domain (2-375) (Q13546 2-375): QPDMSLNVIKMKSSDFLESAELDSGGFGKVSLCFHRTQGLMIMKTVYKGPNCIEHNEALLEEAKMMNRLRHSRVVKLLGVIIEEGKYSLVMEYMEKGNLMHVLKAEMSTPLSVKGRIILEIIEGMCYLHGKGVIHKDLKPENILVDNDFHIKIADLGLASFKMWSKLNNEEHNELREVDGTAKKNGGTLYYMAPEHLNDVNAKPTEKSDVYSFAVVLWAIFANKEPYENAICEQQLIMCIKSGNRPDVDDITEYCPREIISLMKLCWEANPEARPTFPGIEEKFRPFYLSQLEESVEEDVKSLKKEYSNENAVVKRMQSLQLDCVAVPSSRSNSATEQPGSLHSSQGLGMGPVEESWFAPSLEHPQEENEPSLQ

Ki [nM] | Compound
10 | O=C(c1nc2n(n1)[C@H](c1ccccc1)C[C@@H]2F)C1CC2C(C1)C2(F)F (single isomer, unassigned) [Example 82]
9 | O=C(c1nc2n(n1)[C@H](c1ccccc1)C[C@@H]2F)[C@H]1C[C@@H]2CC[C@H]1O2 (single isomer, unassigned) [Example 141]
14 | O=C(c1nc2n(n1)[C@H](c1ccccc1Cl)CC2)C1CC1 (single isomer, unassigned) [Example 77]
33 | O=C(c1nc2n(n1)[C@H](c1ccccc1)C[C@@H]2F)C1C2CC(F)(F)CC21 (single isomer, unassigned) [Example 80]
3.6 | O=C(c1nc2n(n1)[C@H](c1cc(F)ccc1F)C[C@@H]2F)C1CC1 [Example 101, cyclopropyl-[(5S,7S)-5-(2,5-difluorophenyl)-7-fluoro-6,7-dihydro-5H-pyrrolo[1,2-b][1,2,4]triazol-2-yl]methanone]
2.7 | N#CC1(C(=O)c2nc3n(n2)[C@H](c2ccccc2)C[C@@H]3F)CC1 (single isomer, unassigned) [Example 95]
3.5 | O=C(c1nc2n(n1)[C@H](c1ccccc1)C[C@@H]2F)C1CC2(CC2)C1 (single isomer, unassigned) [Example 76]
17 | O=C(c1nc2n(n1)[C@H](c1ccccc1)C[C@@H]2F)C1CC2(C1)CC2(F)F (stereo partly drawn) [Example 70, (2,2-difluorospiro[2.3]hexan-5-yl)-[(5S,7S)-7-fluoro-5-phenyl-6,7-dihydro-5H-pyrrolo[1,2-b][1,2,4]triazol-2-yl]methanone]
180 | O=C(c1nc2n(n1)[C@H](c1ccccc1)C[C@H]2O)C1CC1 (single isomer, unassigned) [Example 88]
30 | Cn1cc([C@@H]2C[C@H](F)c3nc(C(=O)C4CC4)nn32)cn1 (single isomer, unassigned) [Example 152]
61 | N#Cc1ccccc1[C@@H]1C[C@H](F)c2nc(C(=O)C3CC3)nn21 (single isomer, unassigned) [Example 124]
5 | O=C(c1cc2n(n1)[C@H](c1ccccc1)C[C@@H]2F)C1CC1 (single isomer, unassigned) [Example 159]
10 | O=C(c1nc2n(n1)[C@H](c1ncccc1F)C[C@@H]2F)C1CC1 (single isomer, unassigned) [Example 150]
28 | O=C(c1nc2n(n1)[C@H](c1ccccc1)C[C@@H]2F)C1CC1C(F)(F)F (stereo partly drawn) [Example 81, [(5S,7S)-7-fluoro-5-phenyl-6,7-dihydro-5H-pyrrolo[1,2-b][1,2,4]triazol-2-yl]-[2-(trifluoromethyl)cyclopropyl]methanone]
41 | CCC[C@@H]1C[C@H](F)c2nc(C(=O)C3CC3)nn21 (single isomer, unassigned) [Example 93]
4 | O=C(c1nc2n(n1)[C@H](c1ccccc1)C[C@@H]2Cl)C1CC1 (single isomer, unassigned) [Example 116]
3.5 | O=C(c1nc2n(n1)[C@H](c1ccccc1Cl)C[C@@H]2F)C1CC1 [Example 100, cyclopropyl-[(5S,7S)-5-(2-chlorophenyl)-7-fluoro-6,7-dihydro-5H-pyrrolo[1,2-b][1,2,4]triazol-2-yl]methanone]

Ki [nM] | Compound
650 | O=C(c1nc2n(n1)C(c1ccccc1)CC2)C1(Cn2cccn2)CC1 (stereo not drawn) [Example 158, (5-phenyl-6,7-dihydro-5H-pyrrolo[1,2-b][1,2,4]triazol-2-yl)-[1-(pyrazol-1-ylmethyl)cyclopropyl]methanone]
3.6 | O=C(c1nc2n(n1)[C@H](c1ccccc1)C[C@@H]2F)C1CC12CC2 (single isomer, unassigned) [Example 96]
260 | O=C(c1nc2n(n1)C(c1ccccc1)CCC2)C1CC1 (stereo not drawn) [Example 145, cyclopropyl-(5-phenyl-5,6,7,8-tetrahydro-[1,2,4]triazolo[1,5-a]pyridin-2-yl)methanone]
3.4 | O=C(c1nc2n(n1)[C@H](c1ccccc1)C[C@@H]2F)C1(CF)CC1 [Example 79, [1-(fluoromethyl)cyclopropyl]-[(5S,7S)-7-fluoro-5-phenyl-6,7-dihydro-5H-pyrrolo[1,2-b][1,2,4]triazol-2-yl]methanone]
3.9 | O=C(c1nc2n(n1)[C@H](c1cc(F)cc(F)c1F)C[C@@H]2F)C1CC1 (single isomer, unassigned) [Example 107]
70 | O=C(c1nc2n(n1)[C@H](c1ccccc1)CCC2)C1CC1 (single isomer, unassigned) [Example 146]
3.1 | O=C(c1nc2n(n1)[C@H](c1cccc(F)c1F)C[C@@H]2F)C1CC1 (single isomer, unassigned) [Example 106]
970 | Cn1cc(Cl)c([C@@H]2C[C@@H](F)c3nc(C(=O)C4CC4)nn32)n1 [Example 155, ((5S,7R)-5-(4-chloro-1-methyl-1H-pyrazol-3-yl)-7-fluoro-6,7-dihydro-5H-pyrrolo[1,2-b][1,2,4]triazol-2-yl)(cyclopropyl)methanone]
790 | O=C(c1nc2n(n1)[C@@H](c1ccccc1)C[C@H]2Cl)C1CC1 (single isomer, unassigned) [Example 115]
3.7 | O=C(c1cc2n(n1)[C@H](c1ccccc1)C[C@@H]2F)C1CC1 (single isomer, unassigned) [Example 108]
150 | CO[C@H]1C[C@@H](c2ccccc2)n2nc(C(=O)C3CC3)nc21 (single isomer, unassigned) [Example 84]
4 | O=C(c1nc2n(n1)[C@H](c1ccccc1F)C[C@@H]2F)C1CC1 (single isomer, unassigned) [Example 62]
2.9 | O=C(c1nc2n(n1)[C@H](c1ccccc1)C[C@@H]2F)C1(C2CC2)CC1 (single isomer, unassigned) [Example 99]
870 | CC[C@@H]1C[C@H](F)c2nc(C(=O)C3CC3)nn21 (single isomer, unassigned) [Example 92]
4.9 | O=C(c1nc2n(n1)[C@H](c1ccccc1)C[C@@H]2F)C1(CO)CC1 (single isomer, unassigned) [Example 72]
18 | O=C(c1nc2n(n1)[C@H](c1ccccc1)C[C@@H]2F)C1CC1c1ccccn1 (stereo partly drawn) [Example 74, [2-(2-pyridyl)cyclopropyl]-[(5S,7S)-7-fluoro-5-phenyl-6,7-dihydro-5H-pyrrolo[1,2-b][1,2,4]triazol-2-yl]methanone]

Same assay, conditions: tight-binding apparent inhibition constant (Ki app, Morrison equation); 50 nM enzyme, 50 μM ATP, 2 hours incubation

Ki [nM] | Compound
940 | CCC(=O)c1cn2c(n1)C(c1ccccc1)CC2 (stereo not drawn) [Example 17, 1-(7-phenyl-6,7-dihydro-5H-pyrrolo[1,2-a]imidazol-2-yl)propan-1-one]
2180 | CCC(=O)c1cc2n(n1)CC[C@H]2c1ccccc1 (single isomer, unassigned) [Example 23]
11.5 | CC(C)(C)C(=O)c1nc2n(n1)C(c1ccccc1)CC2F (stereo not drawn) [Example 44, 1-(7-fluoro-5-phenyl-6,7-dihydro-5H-pyrrolo[1,2-b][1,2,4]triazol-2-yl)-2,2-dimethyl-propan-1-one]
> 10000 | CCC(=O)c1cc2n(n1)CC[C@@H]2c1ccccc1 (single isomer, unassigned) [Example 24]
28 | CC1(C(=O)c2nc3n(n2)[C@H](c2ccccc2)C[C@@H]3F)COC1 (single isomer, unassigned) [Example 54]
44.2 | CCC(=O)c1cc2n(n1)C(c1ccccc1)CC2 (stereo not drawn) [Example 19, 1-(6-phenyl-5,6-dihydro-4H-pyrrolo[1,2-b]pyrazol-2-yl)propan-1-one]
